Laboratory results as given in patent publication US8076315B2, “Pharmacological treatments for sleep disorders (apnoe) with prostanoid receptor antagonists” (The Board of Trustees of the University of Illinois, priority 2005, dated 2011).

Assays:
[1] = tested on: central apneas during all sleep stages; conditions: rats with frequent central apneas; cited from earlier work
[2] = tested on: sleep apnea in OSAS patients; conditions: cited from earlier work
[3] = tested on: spontaneous sleep apnea in the rat; assay: spontaneous sleep apnea model in the rat (plethysmography with EEG/EMG recording); format: in vivo; conditions: for efficacy against sleep apnea (rate of apneas per hour of NREM and REM sleep, 6 hours of polygraphic recording): systemic injection 15 min before recording, Example 2, described as results that can be obtained
Description: Adult, male Sprague-Dawley rats (obtained from Sasco-King, Wilmington, Mass.; usually 8 per test group; average weight=300 g) are maintained on a 12-hour light (08:00-20:00 hour)/12-hour dark (20:00-08:00 hour) cycle for one week, housed in individual cages and given ad libitum access to food and water. Following the one week of acclimatization, animals are subjected to the following surgical procedures.
Acclimatized animals are anesthetized using a mixture of ketamine […] and xylazine (5 mg/kg) at a volume of 1 ml/kg body weight for the implantation of cortical electrodes for electroencephalogram (EEG) recording and neck muscle electrodes for electromyogram (EMG) recording. The surface of the skull is exposed surgically and cleaned with a 20% solution of hydrogen peroxide followed by a solution of 95% isopropyl alcohol. Next, a dental preparation of sodium fluoride (Flura-GEL®, Saslow Dental, Mt. Prospect, Ill.) is applied to harden the skull above the parietal cortex and allowed to remain in place for 5 minutes. The fluoride mixture is then removed from the skull above the parietal cortex. The EEG electrodes consisting of four stainless steel machine screws, having leads attached thereto, are threaded into the skull to rest on the dura over the parietal cortex. A thin layer of Justi® resin cement (Saslow Dental, Mt. Prospect, Ill.) is applied to cover the screw heads (of screws implanted in the skull) and surrounding skull to further promote the adhesion of the implant. EMG electrodes consisting of two ball-shaped wires are inserted into the bilateral neck musculature. All leads (i.e., EEG and EMG leads) are soldered to a miniature connector (39F1401, Newark Electronics, Schaumburg, Ill.). Lastly, the entire assembly is fixed to the skull with dental cement.
After surgery, all animals are allowed to recover for one week before being recorded for sleep and breathing.
Physiological parameters (see below) from each animal prepared as set forth in Example 1 are recorded on 2 occasions in random order, with recordings for an individual animal separated by at least 3 days. Fifteen minutes prior to each recording an animal receives a systemic injection (1 ml/kg intraperitoneal bolus) of either saline (control) or an active dose of a drug treatment.
Respiration is recorded by placing each animal, unrestrained, inside a single chamber plethysmograph (PLYUN1R/U; Buxco Electronics, Sharon, Conn.; dimension 6 in. ×10 in.×6 in.) ventilated with a bias flow of fresh room air at a rate of 2 L/min. A cable plugged onto the animal's connector and passed through a sealed port is used to collect the bioelectrical activity from the head implant.
Sleep and waking states are assessed using software developed by Benington et al. (1994, Sleep 17: 28-36) to analyze the biparietal EEG and nuchal EMG signals on 10-second epochs. This software discriminates wakefulness (W) as a high frequency low amplitude EEG with a concomitant high EMG tone, NREM sleep by increased spindle and […] together with decreased EMG tone, and REM sleep by a low ratio of a delta to theta activity and an absence of EMG tone. Sleep efficiency is measured as the percentage of total recorded epochs staged as NREM or REM sleep.
An accepted physiological animal model of spontaneous sleep apnea in the rat (see Radulovacki & Carley, 2002, in SLEEP-RELATED BREATHING DISORDERS: EXPERIMENTAL MODELS AND THERAPEUTIC POTENTIAL, (Carley & Radulovacki, eds.), Marcel Dekker: New York, pp. 3-16) is used to assess the effects of test drugs. More specifically, sleep apneas, defined as cessation of respiratory effort for at least 2.5 seconds, are scored for each recording session and associated with the stage of sleep in which they occur (i.e., NREM or REM sleep). The duration requirement of 2.5 seconds represents at least 2 “missed” breaths, which is therefore analogous to a 10 second apnea duration requirement in humans, which also reflects 2-3 missed breaths. […]

Molecule | apnea frequency [1] | efficacy against sleep apnea (rate of apneas per hour of NREM and REM sleep, 6 hours of polygraphic recording) [3] | also measured
Cc1nccn1CC1CCc2c(c3ccccc3n2C)C1=O (stereo not drawn) [ondansetron] | reduce apnea frequency |  | effect on sleep apnea ([2]; another study of OSAS patients): failed to demonstrate any effect
CCCCCNC(=O)c1coc([C@H]2[C@@H](Cc3ccccc3CCC(=O)O)[C@@H]3CC[C@H]2O3)n1 [Ifetroban] |  | dose-dependent efficacy | 
diphloretin phosphate |  | dose-dependent efficacy | 
CC(=O)NNC(=O)N1Cc2ccccc2Oc2ccc(Cl)cc21 [SC19220] |  |  | animals in which apnea was eliminated throughout the 6-hour recording ([3]; intraperitoneal injection, 0.005 mg/kg, 4 test animals): 2 of 4; average reduction of apnea frequency with respect to placebo (DMSO) control injection ([3]; intraperitoneal injection, 0.005 mg/kg, 4 test animals, 6-hour recording): 64%
CN1CCN2c3ncccc3Cc3ccccc3C2C1 (stereo not drawn) [mirtazapine] | reduce apnea frequency |  | reduction of apnea frequency ([2]; one study of OSAS patients): 50%
polyphloretin phosphate |  | dose-dependent efficacy | 
COc1cc(N)c(Cl)cc1C(=O)N[C@H]1CN2CCC1CC2 [R-zacopride] | reduce apnea frequency |  | 
O=C1CC2(CCCC2)CC(=O)N1CCCCN1CCN(c2ncccn2)CC1 [Buspirone] |  |  | patients with reduced apnea index ([2]; patients with sleep apnea syndrome (Mendelson et al., 1991)): 4 of 5
O=C(O)CCn1c2c(c3ccccc31)C[C@H](NS(=O)(=O)c1ccc(F)cc1)CC2 [ramatroban] |  | dose-dependent efficacy | 
